Data from patent publication US7494992B2, “Antiparasitic terpene alkaloids” (Pfizer Inc., priority 2003, dated 2009).
pKd: −log10 of the molar value.

Biological target: fly head P2 membranes
Assay: radiometric assay: displacement of 3H-dihydro-CJ-12662 from fly head P2 membranes (Ki; also single-concentration high throughput screen, % inhibition)
Set-up: species or system Lucilia sericata
Conditions: radioligand binding to fly head P2 membranes; value used to calculate Ki values
Procedure: A further aspect of the invention is a novel binding assay which is used to assess the potential antiparasitic activity of these compounds by measuring how tightly they bind to membranes purified from parasite homogenates. The affinity is calculated according to how readily the compounds of the present invention displace a radiolabeled, reduced analogue of (1S,2R,4aS,5R,8R,8aR)-2-(acetyloxy)-8a-hydroxy-3,8-dimethyl-5-(1-methylethenyl)-1,2,4a,5,6,7,8,8a-octahydronaphthalen-1-yl(2S,3aR,9bR)-6-chloro-9b-hydroxy-5-methyl-1,2,3,3a,5,9b-hexahydropyrrolo[2,3-c][2,1]benzoxazine-2-carboxylate from these membranes.
The in vitro assay for measurement of compounds which displace ^3H-dihydro-(1S,2R,4aS,5R,8R,8aR)-2-(acetyloxy)-8a-hydroxy-3,8-dimethyl-5-(1-methylethenyl)-1,2,4a,5,6,7,8,8a-octahydronaphthalen-1-yl(2S,3aR,9bR)-6-chloro-9b-hydroxy-5-methyl-1,2,3,3a,5,9b-hexahydropyrrolo[2,3-c][2,1]benzoxazine-2-carboxylate from fly head P2 membranes represents another aspect of the invention and was performed as follows. […]

Substance: ^3H-dihydro-(1S,2R,4aS,5R,8R,8aR)-2-(acetyloxy)-8a-hydroxy-3,8-dimethyl-5-(1-methylethenyl)-1,2,4a,5,6,7,8,8a-octahydronaphthalen-1-yl(2S,3aR,9bR)-6-chloro-9b-hydroxy-5-methyl-1,2,3,3a,5,9b-hexahydropyrrolo[2,3-c][2,1]benzoxazine-2-carboxylate [^3H-dihydro-CJ-12662]
- pKd: 8.15
